How the values were obtained:
[1] = Drug recovery in plasma (unknown origin); assay type: ADME, cell-free
[2] = Unbound fraction in plasma (unknown origin) under normal atmospheric condition at pH 7.22 after 6 hrs by equilibrium dialysis method; assay type: ADME, cell-free
[3] = Unbound fraction in plasma (unknown origin) at pH 7.4 after 6 hrs by equilibrium dialysis method in presence of 5% CO2; assay type: ADME, cell-free
[4] = Unbound fraction in plasma (unknown origin) at pH 7.63 after 6 hrs by equilibrium dialysis method in presence of 5% CO2; assay type: ADME, cell-free
[5] = Dissociation constant, pKa of the compound; assay type: physicochemical
[6] = Unbound fraction in plasma (unknown origin) under normal atmospheric condition at pH 7.72 after 6 hrs by equilibrium dialysis method; assay type: ADME, cell-free

Compound	Compound recovery [1] [%]	fraction unbound at 6 h [2]	fraction unbound at 6 h [3]	fraction unbound at 6 h [4]	pKa [5]	fraction unbound at 6 h [6]
Cc1ncc2n1-c1ccc(Cl)cc1C(c1ccccc1F)=NC2 [MIDAZOLAM]	63	0.034	0.036	0.041	9	0.019
C=C[C@H]1C[N@@]2CC[C@H]1C[C@@H]2[C@@H](O)c1ccnc2ccc(OC)cc12 [QUINIDINE]	> 70	–	–	–	–	–
NC(=O)N1c2ccccc2C=Cc2ccccc21 [CARBAMAZEPINE]	> 70	0.303	0.291	0.288	–	0.299
CNCCC(Oc1ccc(C(F)(F)F)cc1)c1ccccc1 (stereo not given) [FLUOXETINE]	> 70	0.079	0.056	0.063	–	0.04
Cc1nc2n(c(=O)c1CCN1CCC(c3noc4cc(F)ccc34)CC1)CCCC2 [RISPERIDONE]	> 70	0.276	0.186	0.222	–	0.163
CN(C)CCCN1c2ccccc2CCc2ccccc21 [IMIPRAMINE]	> 70	0.22	0.181	0.172	–	0.105
CN1CCN2c3ncccc3Cc3ccccc3C2C1 (stereo not given) [MIRTAZAPINE]	> 70	0.32	0.286	0.266	–	0.16
Fc1ccc([C@@H]2CCNC[C@H]2COc2ccc3c(c2)OCO3)cc1 [PAROXETINE]	> 70	0.136	0.099	0.089	9.5	0.074
COC(=O)C1=C(C)NC(C)=C(C(=O)OCCN(C)Cc2ccccc2)C1c1cccc([N+](=O)[O-])c1 (stereo not given) [NICARDIPINE]	> 70	0.008	0.005	0.008	7.2	0.003
CCn1nc(C(=O)O)c(=O)c2cc3c(cc21)OCO3 [CINOXACIN]	> 70	0.251	0.214	0.23	4.7	0.266
CC(CN(C)C)CN1c2ccccc2CCc2ccccc21 (stereo not given) [TRIMIPRAMINE]	> 70	0.106	0.054	0.052	8.4	0.037
O=C(O)Cc1ccccc1Nc1c(Cl)cccc1Cl [DICLOFENAC]	> 70	–	–	–	–	–
O=C(CCCN1CCC(O)(c2ccc(Cl)cc2)CC1)c1ccc(F)cc1 [HALOPERIDOL]	> 70	0.223	0.161	0.164	–	0.124
N[C@@H]1C[C@H]1c1ccccc1.N[C@H]1C[C@@H]1c1ccccc1 (racemic) [TRANYLCYPROMINE]	> 70	0.63	0.612	0.53	8.2	0.49
CCN(CC)C(=O)C1(c2ccccc2)CC1CN (stereo not given)	> 70	0.809	0.837	0.777	9.7	0.828
CC(=O)CC(c1ccccc1)c1c(O)c2ccccc2oc1=O (stereo not given) [WARFARIN]	> 70	–	–	–	–	–
COc1ccc(CCN(C)CCCC(C#N)(c2ccc(OC)c(OC)c2)C(C)C)cc1OC (stereo not given)	> 70	–	–	–	–	–
COc1ccc([C@@H]2Sc3ccccc3N(CCN(C)C)C(=O)[C@@H]2OC(C)=O)cc1 [DILTIAZEM]	> 70	0.417	0.349	0.35	8	0.298
CN1CCN(C2=Nc3cc(Cl)ccc3Nc3ccccc32)CC1 [CLOZAPINE]	> 70	0.101	0.081	0.058	–	0.042
O=C1CC2(CCCC2)CC(=O)N1CCCCN1CCN(c2ncccn2)CC1 [BUSPIRONE]	> 70	–	–	–	7.3	–
CN1C(=O)CN=C(c2ccccc2)c2cc(Cl)ccc21 [DIAZEPAM]	> 70	–	–	–	–	–
CC(C)NCC(O)COc1cccc2ccccc12 (stereo not given) [PROPRANOLOL]	> 70	0.315	0.231	0.213	–	0.216
